Test results reported in patent US10954188B2, “Isotope-enriched 3-amino-1-propanesulfonic acid derivatives and uses thereof” (RISEN (SUZHOU) PHARMA TECH CO., LTD., priority 2017, dated 2021).
“Also recorded” adds a separate entry of the source. Counter-ions that a name gives are not always drawn.

How the values were obtained:
[1] = Compound stability in simulated gastric fluid (SGF); assay type: in vitro ADME; conditions: 400 μg/mL, 37° C., percentage of initial concentration, LC-MS/MS
Protocol: Compounds were evaluated for stability in simulated gastric fluid (SGF). A solution of a compound in SGF (400 μg/mL) was incubated at 37° C. for 4 h. An aliquot of the sample was withdrawn, at time 0 and time 4 h, for concentration analysis on a LC-MS/MS instrument. The initial concentration (at time 0) of a compound was considered as 1, and the remaining concentration of the compound at 4-h time point was calculated and expressed as the percentage of the initial concentration.

[2] = Compound stability in whole mouse blood; assay type: in vitro ADME; conditions: fresh mouse blood, initial concentration 1.44 μM, 37° C., test (parent) compound at 4 h
Protocol: Compounds were also evaluated for stability in whole mouse blood. A sample of test compound in fresh mouse blood (at a concentration of 1.44 μM) was incubated at 37° C. for 4 h. An aliquot of the sample was withdrawn, at time 5 min. and time 4 h, for concentration analysis on a LC-MS/MS instrument after converting the blood sample to an analytical sample employing standard sample preparation procedures. The detailed recovery of the compound was not fully evaluated and optimized. The sample was analyzed for the parent compound and the therapeutic compound.

[3] = Pharmacokinetic study in C57Bl6 mice; assay type: in vivo; set-up: AUC(0-t): concentration or dose not given beside the values; conditions: mouse, oral gavage, plasma, prodrug; for AUC(0-t): read-out: Prodrug AUCt; for half-life: read-out: Prodrug T1/2 (converted)
Protocol: (§1) Forty-two male ICR mice, body-weight of 19 to 21 g, are randomized into 7 groups. The animals are administered with an aqueous solution of a test compound by oral gavage. Blood samples are collected into tubes pre-loaded with heparin anticoagulating agent, at time 0.167, 0.5, 1, 2, 4, 8, and 12 h after administration. Blood samples are centrifuged, and plasma samples are isolated for analysis of the test compound (including compounds administered, metabolites, and/or prodrugs). A 400 μL blood sample is collected from each animal, and then the animal is put to sleep with barbiturate anesthesia; perfusion is performed (through the main vein of the heart) with saline at a rate of 5 mL/min., for 6 min. The brain is collected and kept at −40° C. until the sample is analyzed. The protein in the plasma is precipitated and the analytical sample is analyzed on an AB4000-Q-Trap UPLC-MS/MS instrument.
Pharmacokinetic studies were performed in C57B16 mice. The experiments were done using the same protocol described in Example 20. For each compound, 42 animals were used (6 animals per time point, and 7 time points distributed at 10 min, 0.5, 1, 2, 4, 8 and 12 h).

[4] = Pharmacokinetic study in ICR mice, oral (FIGS. 1 and 2); assay type: in vivo; conditions: for concentration of metabolite (2-carboxy-1-ethanesulfonic acid) in plasma compared to 3APS (of natural abundance): 0.72 mmol/kg, 2 h; for drug metabolism compared to 3APS (of natural abundance) / plasma drug exposure compared to 3APS (of natural abundance): mole-equivalent dose (0.72 mmol/kg)
Protocol: A compound according to the invention is dissolved in water at a concentration determined by the desired dose and dosing volume for the specific animal to which the compound is to be administered. A calculated volume of dosing solution is administered to the animal (PO, SQ, IP, or IV). A blood sample is collected following administration of the compound at specific time points (such as 10 min., 30 min., 1 h, 2 h, 4 h, 8 h, and 12 h). The blood sample is converted to a plasma sample using standard techniques. A brain sample can also be collected after complete perfusion. The plasma and/or brain samples are analyzed to determine the concentration of relevant compounds (including e.g., administered compounds, therapeutic compounds (e.g., drugs) and metabolites).
as §1

Structure (SMILES) | Remaining (%) at 4 h [1] | Compound conc. (μM) at 4 h [2] | Cmax [3] | AUC(0-t) [3] | half-life [3] | concentration of metabolite (2-carboxy-1-ethanesulfonic acid) in plasma compared to 3APS (of natural abundance) [4] | drug metabolism compared to 3APS (of natural abundance) [4] | plasma drug exposure compared to 3APS (of natural abundance) [4] | conversion of prodrug to compound 1 in the subject ([4]; plasma)
[2H]C([2H])(CCS(=O)(=O)O)NC(=O)[C@@H](N)Cc1ccccc1 [Compound 5, 3-((L-phenylalanyl)amino)-3,3-dideuterium-1-propanesulfonic acid] | 99% | 0.03 µM | 1090 ng/mL | 782 ng·h/mL | 0.4 h | – | – | – | –
[2H]C([2H])(CCS(=O)(=O)O)NC(=O)[C@@H](N)Cc1c[nH]cn1 [Compound 6, 3-((L-histidyl)amino)-3,3-dideuterium-1-propanesulfonic acid hydrochloride] | – | – | 9920 ng/mL | 16600 ng·h/mL | 1.4 h | – | – | – | –
[2H]C([2H])(CCS(=O)(=O)O)NC(=O)[C@H](C)N [Compound 2, 3-((L-alanyl)amino)-3,3-dideuterium-1-propanesulfonic acid] | – | 0.18 µM | 472 ng/mL | 348 ng·h/mL | 0.6 h | – | – | – | –
[2H]C([2H])(CCS(=O)(=O)O)NC(=[18O])[C@@H](N)C(C)C [Compound 29, 3-((^18O-L-valyl)amino)-3,3-dideuterium-1-propanesulfonic acid] | – | 0.80 µM | – | – | – | – | – | – | –
[2H]C([2H])(CCS(=O)(=O)O)NC(=O)[C@@H](N)CO [Compound 3, 3-(L-serylamino)-3,3,-dideuterium-1-propanesulfonic acid] | – | – | 22300 ng/mL | 44700 ng·h/mL | 1.9 h | – | – | – | –
N[C@@H](Cc1ccccc1)C(=[18O])NCCCS(=O)(=O)O [Compound 16] | 96% | 0.74 µM | 3840 ng/mL | 11900 ng·h/mL | 1.5 h | – | – | – | –
[2H]C([2H])(CCS(=O)(=O)O)NC(=O)[C@@H](N)C(C)C [Compound 4, 3-((L-valyl)amino)-3,3-dideuterium-1-propanesulfonic acid] | 107% | 0.74 µM | 39500 ng/mL | 38000 ng·h/mL | 1.5 h | much lower | delayed drug metabolism | improved plasma drug exposure significantly; also recorded: even greater improvement of drug exposure | converted easily to 1
N[C@@H](Cc1c[nH]cn1)C(=[18O])NCCCS(=O)(=O)O [Compound 17, 3-((^18O-L-histidyl)amino)-1-propanesulfonic acid hydrobromide] | 101% | 1.20 µM | 19000 ng/mL | 14200 ng·h/mL | 1.1 h | – | – | – | –
[2H]C([2H])(N)CCS(=O)(=O)O [Compound 1, 3-amino-3,3-dideuterium-1-propanesulfonic acid] | (100) % | 0.98 µM | – | – | – | much lower | delayed drug metabolism; also recorded: delayed metabolic profile | improved plasma drug exposure significantly | –
CC(C)[C@H](N)C(=[18O])NCCCS(=O)(=O)O [Compound 15, 3-((^18O-L-valyl)amino)-1-propanesulfonic acid] | 104% | 0.78 µM | – | – | – | – | – | – | –
C[C@H](N)C(=[18O])NCCCS(=O)(=O)O [Compound 13, 3-((^18O-L-alanyl)amino)-1-propanesulfonic acid] | – | – | 672 ng/mL | 1830 ng·h/mL | 0.5 h | – | – | – | –
